Experimental findings from publication PMC7529893, “Structural basis for substrate recognition and chemical inhibition of oncogenic MAGE ubiquitin ligases” (Nature Communications, 2020) are described below.

The test has as its target T1, MAGE-A11:PCF11 interaction (GST-MAGE-A11 and FAM-PCF11_4) (Homo sapiens, UniProt P43364).
T1 construct: GST-MAGE-A11 MHD (human MAGE-A11 MHD amino acid 218-429); made in house; host or cells: E. coli BL21(DE3)
T1 sequence (P43364 218-429): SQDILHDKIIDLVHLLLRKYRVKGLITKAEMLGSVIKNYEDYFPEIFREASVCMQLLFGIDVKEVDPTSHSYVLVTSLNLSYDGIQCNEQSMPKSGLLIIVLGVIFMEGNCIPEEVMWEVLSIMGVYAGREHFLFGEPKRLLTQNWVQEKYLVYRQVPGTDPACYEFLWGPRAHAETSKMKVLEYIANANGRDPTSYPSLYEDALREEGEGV
In words: TR-FRET primary / single point screen at 15 µM. Type of test: binding. The procedure:
The TR-FRET assay buffer with a formula of 50 mM Tris pH 7.5, 20 mM MgCl2, 0.1 mg/ml BSA and 1 mM DTT was freshly prepared before each experiment. All TR-FRET assays were performed in black 384-well plates with 20 µl/well assay volume in the TR-FRET assay buffer at room temperature (~25 °C). All peptides or compounds were solubilized in DMSO. To test the competitive activity of peptides or compounds against the interaction between GST-MAGE-A11 MHD and FAM-PCF11_4 peptide, 10 µl/well peptide or compound at specified concentration was dispensed into a black 384-well low volume plate, followed by 5 µl/well FAM-PCF11_4 (800 nM), 5 µl/well Tb-anti-GST (20 nM), and GST-MAGE-A11 MHD (20 nM). The assay components in each well was then mixed by shaking the plate on an IKA MTS 2/4 digital microtiter plate shaker (IKA Works; Wilmington, NC, USA) for 1 min. The plate was further centrifuged in an Eppendorf 5810 centrifuge with an A-4-62 swing-bucket rotor (Eppendorf AG, Hamburg, Germany) at 201 g for 30 s. The plate was then incubated for 90 min with a lid to avoid light exposure to the assay components. After incubation, the fluorescent emission signals at 520 nm and 490 nm channels of individual wells were measured with a PHERAstar FS plate reader (BMG Labtech; Durham, NC, USA) by using a 340 nm excitation filter, 100 µs delay time, and 200 µs integration time. The TR-FRET fluorescence emission ratio (TR-FRET signal) for each well was presented as 10,000 × 520 nm/490 nm, which was used directly for curve fitting, or further converted to %Inhibition based on the respective positive and negative controls. The graphic software GraphPad Prism 4.81 (GraphPad Software; La Jolla, CA, USA) was used to generate curves and derive IC50 values of tested peptides or compounds, if applicable. TR-FRET screen for identifying MAGE-A11 small molecule inhibitors was performed as follows. The primary one-concentration screening and subsequent 10 or 20-concentration dose-response tests were accomplished with an automated High Throughput Screening system (HighRes Biosolutions, Beverly, MA)[30]. In the primary screening, 15 µl/well FAM-PCF11_4 (267 nM) was first dispensed with a Multidrop Combi Reagent Dispenser (Thermo Fisher Scientific, Waltham, MA) to black 384-well low-volume assay plates. The plates were spun down with a Velocity11 VSpin microplate centrifuge (Agilent Technologies, Santa Clara, CA). In total, 30 nl/well of 10 mM compound/DMSO solutions, or DMSO alone, were transferred from compound plates (the St. Jude FDA drug and bioactive library, Drug-like library and Lead-like library) or a control plate to the assay plates with a Pin Tool (V&P Scientific, San Diego, CA). The compounds were arrayed in columns 3–12 and columns 15–24 of compound plates. The controls were arrayed in columns 1, 2, 13, and 14 of a compound plate. In all, 5 µl/well Tb-anti-GST (20 nM) and GST-MAGE-A11 (20 nM) or 5 µl/well Tb-anti-GST (20 nM) alone was then dispensed to selected wells with a Multidrop Combi Reagent Dispenser. The final assay volume was 20 µl/well. […] The final tested compound concentration was 15 µM. The final FAM-PCF11_4 concentration was 200 nM and the final Tb-anti-GST concentration was 5 nM. The final GST-MAGE-A11 concentration was 5 nM except for those selected positive control wells in which GST-MAGE-A11 was not presented. The plates were then shaken with a big bear shaker (Big Bear Automation, Santa Clara, California) and spun down with the Velocity11 VSpin microplate centrifuge for 20 s. The plates were then incubated at room temperature in a Liconic incubator (Liconic US, Woburn, MA) for 90 min. The TR-FRET signals for individual wells were measured with a PHERAstar FS plate reader. The %Inhibition of each tested inhibitor was calculated by using Eq. 1. Those inhibitors with %Inhibition >30% in the primary screening were selected for further dose-response test, along with additional newly synthesized compounds. […]
(In general: In TR-FRET formats the signal depends on donor and acceptor labels being close together.)

Setting [1] is: single point TR-FRET screening of quinoline compounds against MAGE-A11:PCF11, 15 µM.
[2] abbreviates: single point TR-FRET screening of 797 quinoline compounds against MAGE-A11:PCF11.

As to `Clc1ccc2c(NCCCNCc3ccco3)ccnc2c1` [SJ000000502], the “percent inhibition (TR-FRET)” value under setting [1] is 6.349. As for `CN(C)CCNc1c2c(nc3ccccc13)CCC2` [SJ000013622], the “percent inhibition (TR-FRET)” value under setting [2] worked out at 3.285. On to `O=C(O)CCCNC(=O)CNc1c2ccccc2nc2ccccc12` [SJ000016432], for which, under setting [2], the “percent inhibition (TR-FRET)” value turned out to be 9.598.

As for `CC(Nc1c2ccccc2nc2ccccc12)C(=O)NC(CC(N)=O)C(=O)O` (stereo not drawn) [SJ000016433], the “percent inhibition (TR-FRET)” value under setting [2] came out at 22.7145. On the same count and under the same terms, to `CCOC(=O)c1cnc2c(ccc3ccccc32)c1NCCN(C)C` [SJ000019487] belongs 6.418; to `CCN(CC)CC(=O)Nc1c2c(nc3ccccc13)CCCC2` [SJ000019523], 2.741. Still for that read-out and setting: to `CCOC(=O)c1cnc2c(C)cc(Cl)cc2c1NCCN(C)C` [SJ000027210] belongs 3.834. Regarding `CCOC(=O)c1cnc2c(Cl)c(Cl)ccc2c1NCCN(C)C` [SJ000027266], the “percent inhibition (TR-FRET)” value under setting [2] stood at 2.575. In the case of `CCOC(=O)c1cnc2ccc(C)cc2c1NCCN1CCOCC1` [SJ000027268], under setting [2], the “percent inhibition (TR-FRET)” value is -0.3915. Take `CCOC(=O)c1cnc2ccc(OCC)cc2c1NCCN(C)C` [SJ000027288]: the “percent inhibition (TR-FRET)” value under setting [2] was found to be 10.6575. Regarding `CCOC(=O)c1cnc2ccc(OCC)cc2c1NCCN1CCOCC1` [SJ000027289], under setting [2], the “percent inhibition (TR-FRET)” value was determined as 5.291. `CN(C)CCCNc1c2c(nc3ccccc13)CCC2` [SJ000029259]: the “percent inhibition (TR-FRET)” value under setting [1] is recorded as 24.0531. With `CCOC(=O)c1cnc2ccc(Br)cc2c1NCCN1CCOCC1` [SJ000031339], under setting [2], the “percent inhibition (TR-FRET)” value is -47.2425. As for `CCOC(=O)c1ccc2ncc(C(=O)OCC)c(NCCN3CCOCC3)c2c1` [SJ000031347], the “percent inhibition (TR-FRET)” value under setting [2] is listed as 0.6542. For `CCOC(=O)c1cnc2c(C)c(Cl)ccc2c1NCCN(C)C` [SJ000037393], the “percent inhibition (TR-FRET)” value under setting [2] is reported as -1.333. Still for that read-out and setting: to `CCOC(=O)c1cnc2c(C)cc(C)cc2c1NCCN(C)C` [SJ000037396] belongs 4.92. Regarding `CCOC(=O)c1cnc2c(C)cc(C)cc2c1NCCCN(C)C` [SJ000037397], under setting [1], the “percent inhibition (TR-FRET)” value is recorded as 14.9289. Consider `CN(C)CCCNc1c2ccccc2nc2ccccc12` [SJ000044378], for which the “percent inhibition (TR-FRET)” value under setting [1] was found to be 16.7674. Same read-out and setting: the figure for `NC(=O)CC(Nc1c2ccccc2nc2ccccc12)C(=O)O` (stereo not drawn) [SJ000044383] is 20.1038. Turning to `CCc1nc2ccccc2c(NC(=O)CNC(C)(C)CC(C)(C)C)c1C` [SJ000049110], the “percent inhibition (TR-FRET)” value under setting [2] is -0.6045. As for `CCN(CC)CC(=O)Nc1c2c(nc3ccccc13)CCC2` [SJ000049655], under setting [2], the “percent inhibition (TR-FRET)” value is on record as 0.6542.

Regarding `Cc1ccc2ncc(S(=O)(=O)c3ccccc3)c(N3CCN(C)CC3)c2c1` [SJ000083945], the “percent inhibition (TR-FRET)” value under setting [2] is recorded as -8.419. Same read-out and setting: the figure for `CCc1ccc2ncc(S(=O)(=O)c3ccccc3)c(N3CCN(C)CC3)c2c1` [SJ000083946] is -6.249; for `COc1ccc2ncc(S(=O)(=O)c3ccccc3)c(N3CCN(C)CC3)c2c1` [SJ000083947] it is -2.0938. In the case of `CCOc1ccc2ncc(S(=O)(=O)c3ccccc3)c(N3CCN(C)CC3)c2c1` [SJ000083948], the “percent inhibition (TR-FRET)” value under setting [2] was -3.938.

As to `CN1CCN(c2c(S(=O)(=O)c3ccccc3)cnc3ccc(F)cc23)CC1` [SJ000083949], the “percent inhibition (TR-FRET)” value under setting [2] is reported as -11.5001. Regarding `CN1CCN(c2c(S(=O)(=O)c3ccccc3)cnc3ccc(Cl)cc23)CC1` [SJ000083950], the “percent inhibition (TR-FRET)” value under setting [2] is on record as -5.3743. Turning to `COc1cc2ncc(S(=O)(=O)c3ccc(C)cc3)c(N3CCN(C)CC3)c2cc1OC` [SJ000083951], under setting [2], the “percent inhibition (TR-FRET)” value is reported as 1.3128. As to `COc1ccc2ncc(S(=O)(=O)c3ccc(Cl)cc3)c(N3CCN(C)CC3)c2c1` [SJ000083952], the “percent inhibition (TR-FRET)” value under setting [2] was -3.658. On to `COc1cc2ncc(S(=O)(=O)c3ccc(Cl)cc3)c(N3CCN(C)CC3)c2cc1OC` [SJ000083953], for which, under setting [2], the “percent inhibition (TR-FRET)” value came to 4.674.

For `CCc1ccc2ncc(S(=O)(=O)c3ccc(OC)cc3)c(N3CCN(C)CC3)c2c1` [SJ000083954], under setting [2], the “percent inhibition (TR-FRET)” value is on record as -5.969. With `COc1ccc(S(=O)(=O)c2cnc3cc(OC)c(OC)cc3c2N2CCN(C)CC2)cc1` [SJ000083955], under setting [2], the “percent inhibition (TR-FRET)” value was 0.8227. The same measure, in the same setting: the figure for `CCN1CCN(c2c(S(=O)(=O)c3ccccc3)cnc3ccc(C)cc23)CC1` [SJ000083956] is -3.448; for `CCc1ccc2ncc(S(=O)(=O)c3ccccc3)c(N3CCN(CC)CC3)c2c1` [SJ000083957] it is 3.238; for `CCN1CCN(c2c(S(=O)(=O)c3ccccc3)cnc3ccc(OC)cc23)CC1` [SJ000083958] it is 0.1242. As for `CCOc1ccc2ncc(S(=O)(=O)c3ccccc3)c(N3CCN(CC)CC3)c2c1` [SJ000083959], the “percent inhibition (TR-FRET)” value under setting [2] is on record as 4.534. In the case of `CCN1CCN(c2c(S(=O)(=O)c3ccccc3)cnc3ccc(Cl)cc23)CC1` [SJ000083960], under setting [2], the “percent inhibition (TR-FRET)” value came out at 4.43.

For `CCN1CCN(c2c(S(=O)(=O)c3ccc(C)cc3)cnc3ccc(C)cc23)CC1` [SJ000083961], the “percent inhibition (TR-FRET)” value under setting [2] is given as 0.2213.

Take `CCc1ccc2ncc(S(=O)(=O)c3ccc(C)cc3)c(N3CCN(CC)CC3)c2c1` [SJ000083962]: under setting [2], the “percent inhibition (TR-FRET)” value was 2.377. Turning to `CCN1CCN(c2c(S(=O)(=O)c3ccc(C)cc3)cnc3ccc(OC)cc23)CC1` [SJ000083963], the “percent inhibition (TR-FRET)” value under setting [2] is -3.917. `CCOc1ccc2ncc(S(=O)(=O)c3ccc(C)cc3)c(N3CCN(CC)CC3)c2c1` [SJ000083964]: the “percent inhibition (TR-FRET)” value under setting [2] is given as -5.899. With `CCN1CCN(c2c(S(=O)(=O)c3ccc(C)cc3)cnc3cc(OC)c(OC)cc23)CC1` [SJ000083965], the “percent inhibition (TR-FRET)” value under setting [2] came to 7.146. For `CCN1CCN(c2c(S(=O)(=O)c3ccc(C)cc3)cnc3ccc(Cl)cc23)CC1` [SJ000083966], under setting [2], the “percent inhibition (TR-FRET)” value is on record as -4.358. Turning to `CCN1CCN(c2c(S(=O)(=O)c3ccc(Cl)cc3)cnc3ccc(C)cc23)CC1` [SJ000083967], the “percent inhibition (TR-FRET)” value under setting [2] was -3.0982. As for `CCc1ccc2ncc(S(=O)(=O)c3ccc(Cl)cc3)c(N3CCN(CC)CC3)c2c1` [SJ000083968], under setting [2], the “percent inhibition (TR-FRET)” value is -19.1318. Still for that read-out and setting: the figure for `CCOc1ccc2ncc(S(=O)(=O)c3ccc(Cl)cc3)c(N3CCN(CC)CC3)c2c1` [SJ000083969] is -4.989; for `CCN1CCN(c2c(S(=O)(=O)c3ccc(Cl)cc3)cnc3cc(OC)c(OC)cc23)CC1` [SJ000083970] it is -6.809. Turning to `CCOc1ccc2ncc(S(=O)(=O)c3ccc(OC)cc3)c(N3CCN(CC)CC3)c2c1` [SJ000083971], the “percent inhibition (TR-FRET)” value under setting [2] is -6.389.
